Values after ≈ are worked out from the molar mass of the structure shown.
Legend:
HTB161 = assay: Inhibition of cancer cell growth as measured by cell number, HTB161; type: cell-based; conditions: Homo sapiens, 48 h, read-out: IC50 HTB161
A27805 = assay: Inhibition of cancer cell growth as measured by cell number, A27805; type: cell-based; conditions: Homo sapiens, 48 h, read-out: IC50 A27805
A2780DDP = assay: Inhibition of cancer cell growth as measured by cell number, A2780DDP; type: cell-based; conditions: Homo sapiens, 48 h, read-out: IC50 A2780DDP
MIP = assay: Inhibition of cancer cell growth as measured by cell number, MIP; type: cell-based; conditions: Homo sapiens; cell number, Sulforhodamine B, 48 hours exposure; Table 4; read-out: IC50 MIP
SW620 = assay: Inhibition of cancer cell growth as measured by cell number, SW620; type: cell-based, human; conditions: Homo sapiens, SW-620, 48 h, read-out: IC50 SW620, cell number, Sulforhodamine B, 48 hours exposure; Table 4;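 also: SW620 was included as a cell line with little or no EGFR or HER2/neu expression, in contrast to receptor-overexpressing lines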
From the text: (§1) The cell lines were chosen since they overexpressed epidermal growth factor receptor (EGFR) (i.e. A431) or HER2/neu (SKBR3), or had little to no expression of the these receptors (SW620, LOX, MCF7).

COLO205 = assay: Inhibition of cancer cell growth as measured by cell number, COLO205; type: cell-based; conditions: Homo sapiens, COLO 205, 48 h, read-out: IC50 COLO205
CX1 = assay: Inhibition of cancer cell growth as measured by cell number, CX1; type: cell-based; conditions: Homo sapiens, CX-1, 48 h, read-out: IC50 CX1
CACO2 = assay: Inhibition of cancer cell growth as measured by cell number, CACO2; type: cell-based; conditions: Homo sapiens, Caco-2, 48 h, read-out: IC50 CACO2
HCT15 = assay: Inhibition of cancer cell growth as measured by cell number, HCT15; type: cell-based; conditions: Homo sapiens, HCT-15, 48 h, read-out: IC50 HCT15
LS174T = assay: Inhibition of cancer cell growth as measured by cell number, LS174T; type: cell-based; conditions: Homo sapiens, 48 h, read-out: IC50 LS174T
SW948 = assay: Inhibition of cancer cell growth as measured by cell number, SW948; type: cell-based; conditions: Homo sapiens, SW948, 48 h, read-out: IC50 SW948
CCL228 = assay: Inhibition of cancer cell growth as measured by cell number, CCL228; type: cell-based; conditions: Homo sapiens, 48 h, read-out: IC50 CCL228
MCF7 = assay: Inhibition of cancer cell growth as measured by cell number, MCF7; type: cell-based, human; conditions: Homo sapiens, MCF7, 48 h, read-out: IC50 MCF7, cell number, Sulforhodamine B, 48 hours exposure; Table 5;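 also: MCF7 was included as a line with little or no EGFR or HER2/neu expression, in contrast to the receptor-overexpressing lines of the panel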
From the text: as §1

B7474 = assay: Inhibition of cancer cell growth as measured by cell number, B7474; type: cell-based; conditions: Homo sapiens, 48 h, read-out: IC50 B7474
T47D = assay: Inhibition of cancer cell growth as measured by cell number, T47D; type: cell-based; conditions: Homo sapiens, 48 h, read-out: IC50 T47D
LX1 = assay: Inhibition of cancer cell growth as measured by cell number, LX1; type: cell-based; conditions: Homo sapiens, LX-1, 48 h, read-out: IC50 LX1
A549 = assay: Inhibition of cancer cell growth as measured by cell number, A549; type: cell-based; conditions: Homo sapiens, A549, 48 h, read-out: IC50 A549
LOX = assay: Inhibition of cancer cell growth as measured by cell number, LOX; type: cell-based, human; conditions: Homo sapiens, LOX, 48 h, read-out: IC50 LOX, cell number, Sulforhodamine B, 48 hours exposure; Table 6;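 also: LOX cells served as a line with low or absent EGFR and HER2/neu expression, in contrast to receptor-overexpressing lines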
From the text: as §1

A431 [1] = assay: Inhibition of cancer cell growth as measured by cell number, A431; type: cell-based, human; conditions: Homo sapiens, A-431, 48 h, read-out: IC50 A431, cell number, Sulforhodamine B, 48 hours exposure; Table 6;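 also: human A431 line, picked because it overexpresses epidermal growth factor receptor (EGFR)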
From the text: as §1

NEC = assay: Inhibition of cancer cell growth as measured by cell number, NEC; type: cell-based; conditions: Homo sapiens, 48 h, read-out: IC50 NEC
DU145 = assay: Inhibition of cancer cell growth as measured by cell number, DU145; type: cell-based; conditions: Homo sapiens, DU-145, 48 h, read-out: IC50 DU145
PC3 = assay: Inhibition of cancer cell growth as measured by cell number, PC3; type: cell-based; conditions: Homo sapiens, PC-3, 48 h, read-out: IC50 PC3
LNCAP = assay: Inhibition of cancer cell growth as measured by cell number, LNCAP; type: cell-based; conditions: Homo sapiens, 48 h, read-out: IC50 LNCAP
HL60 = assay: Inhibition of cancer cell growth as measured by cell number, HL60; type: cell-based; conditions: Homo sapiens, HL-60, 48 h, read-out: IC50 HL60
CCRF-CFM = assay: Inhibition of cancer cell growth as measured by cell number, CCRF-CFM; type: cell-based; conditions: Homo sapiens, 48 h, read-out: IC50 CCRF-CFM
SKBR3 = assay: Inhibition of cancer cell growth as measured by cell number, SKBR3; type: cell-based, human; conditions: Homo sapiens, SK-BR-3, 48 h, read-out: IC50 SKBR3, cell number, Sulforhodamine B, 48 hours exposure; Table 7;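 also: SK-BR-3 cells were selected as a line overexpressing HER2/neu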
From the text: as §1

[2] = target: T1, Kinase insert Domain containing Receptor (KDR: the catalytic domain of the VEGF receptor) (Homo sapiens, UniProt P35968); assay: Inhibition of Kinase insert Domain containing Receptor (KDR); type: biochemical; conditions: pH 7.2; radioactive format; read-out: KDR IC50 (converted);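 also: KDR phosphorylating a Glu:Tyr 4:1 copolymer with P32- or P33-labelled ATP, Mg++ and vanadate, read as acid-insoluble radiolabel, compared with compound-free reaction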
T1 construct: KDR: the catalytic domain of the VEGF receptor
T1 sequence (P35968 834-1162 limits assumed): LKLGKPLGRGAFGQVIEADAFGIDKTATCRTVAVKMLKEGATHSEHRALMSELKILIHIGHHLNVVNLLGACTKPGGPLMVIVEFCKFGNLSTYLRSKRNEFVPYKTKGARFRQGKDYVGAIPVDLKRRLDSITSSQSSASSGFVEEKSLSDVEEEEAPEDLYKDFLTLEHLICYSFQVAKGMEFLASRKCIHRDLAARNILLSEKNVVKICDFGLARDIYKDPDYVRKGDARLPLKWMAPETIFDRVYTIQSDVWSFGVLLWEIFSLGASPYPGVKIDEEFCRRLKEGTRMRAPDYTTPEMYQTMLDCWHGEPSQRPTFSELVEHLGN
Method: In this standard pharmacological test procedure, KDR protein is mixed, in the presence or absence of a inhibitor compound, with a substrate peptide to be phosphorylated (a copolymer of glutamic acid and tyrosine, E:Y :: 4:1) and other cofactors such as Mg^++ and sodium vanadate (a protein tyrosine phosphatase inhibitor) in an appropriate buffer to maintain pH (7.2). ATP and a radioactive tracer (either P^32-or P^33- labeled ATP) is then add to initiate phosphorylation. After incubation, the radioactive phosphate associated with the acid-insoluble fraction of the assay mixture is then quantified as reflection of substrate phosphorylation.

[3] = target: recombinant human MEK 1 (MAPKK) and recombinant human ERK2 (MAPK); assay: Mitogen Activated Protein Kinase (MAPK) assay, two component coupled MEK 1 / ERK2; type: biochemical; conditions: separate entries for the same compound = evaluated more than one time;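 also: MEK 1-activated ERK2 phosphorylates MBP or Myc peptide with 33P-ATP, filter capture and scintillation counting, inhibitor preincubated with ERK2 30 min at 0 °C, inhibition relative to uninhibited control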
Method: To evaluate inhibitors of the MAP (mitogen activated protein) kinase a two component coupled standard pharmacological test procedure, which measures phosphorylation of a serine/threonine residue in an appropriate sequence in the substrate in the presence and absence of a putative inhibitor, was used. Recombinant human MEK 1 (MAPKK) was first used to activate recombinant human ERK2 (MAPK) and the activated MAPK (ERK) was incubated with substrate (MBP peptide or MYC peptide) in the presence of ATP, Mg^+2 and radiolabeled ^33P ATP. The phosphorylated peptide was captured on a P 81 phosphocellulose filter (paper filter or embedded in microtiter plate) washed and counted by scintillation methods.
The peptide substrates used in the assay are MBP, peptide substrate ([sequence]), or synthetic Myc substrate, ([sequence]•5 TFA. The recombinant enzymes used were prepared as GST fusion proteins of human ERK 2 and human MEK 1. Inhibitor samples were prepared as 10X stocks in 10% DMSO and an appropriate aliquot was used to deliver either 10 ug/ml for a single point screening dose or 100, 10, 1, and 0.1 uM final concentration for a dose response curve. Final DMSO concentrations were less than or equal to 1%.
The reaction was run as follows in 50 mM Tris kinase buffer, pH 7.4 in a reaction volume of 50 ul. The appropriate volume of kinase buffer and inhibitor sample was added to the tube. Appropriate dilution of enzyme was delivered to give 2-5 ug recombinant MAPK (Erk ) per tube. The inhibitor was incubated with MAPK (Erk) for 30 min at 0 deg. […] Recombinant Mek (MAPKK) ( 0.5-2.5 ug) or fully activated Mek (0.05-0.1 units) was added to activate the Erk and incubated for 30 min at 30° C. […] Samples were incubated at 30°C for 30 minutes and the reaction was stopped by adding 25 µl of ice cold 10 %TCA .After samples were chilled on ice for 30 min, 20 µl of sample was transferred onto P 81 phosphocellulose filter paper or appropriate MTP with embedded P 81 filter. Filter papers or MTP were washed 2 times with a large volume of 1% acetic acid, then 2 times with water. The filters or MTP were briefly air dried before addition of scintillant and samples were counted in the appropriate scintillation counter set up for reading ^33P isotope.
The raw data was captured as cpm. Sample replicates were averaged and corrected for background count. Mean cpm data was tabulated by group and % inhibition by a test compound was calculated as (corrected cpm control- corrected. cpm sample/control) X 100 = % inhibition.

A431 [4] = assay: Inhibition of cell growth by incorporation of [3H]-thymidine, A431; type: cell-based, human; conditions: Homo sapiens, A-431, read-out: IC50 A431
Method: Representative compounds of this invention were evaluated for their ability to inhibit the growth of the cell lines described below in vitro. The inhibition is quantitated by measuring the decrease in the incorporation of radio-labeled thymidine when the cells are grown in the presence of the inhibitor. […] Cells were routinely grown in a humidified incubator in 5% CO2 in air.
Cells were seeded at 10,000 cells/well in 96 well plates in complete media and allowed to grow to log phase. At this stage the complete media was replaced with media containing 0.5% FBS (for cells growing in 10% FBS) or media lacking epidermal growth factor (EGF) (for cells growing in serum free media). […] Media with test compound was then removed and complete media was added back. The cells were allowed to grow for 18 hours. This is followed by incubation in [^3H]thymidine (1mCi/ml in serum/EGF media) for 4 hours. Cells were lysed in 0.5 M NaOH for at least 30 min at 37°C and radioactivity analyzed.
The % inhibition of the compound evaluated was determined for at least three different concentrations and the IC50 value evaluated from the dose response curve. […] CPM(control) is in units of counts per minute and is a number expressing the amount of [^3H]thymidine incorporated onto the DNA when cells are grown in the absence of test compound as measured by liquid scintillation counting.

Row | SMILES | IC50 (HTB161) [µg/mL] | IC50 (A27805) [µg/mL] | IC50 (A2780DDP) [µg/mL] | IC50 (MIP) [µg/mL] | IC50 (SW620) [µg/mL] | IC50 (COLO205) [µg/mL] | IC50 (CX1) [µg/mL] | IC50 (CACO2) [µg/mL] | IC50 (HCT15) [µg/mL] | IC50 (LS174T) [µg/mL] | IC50 (SW948) [µg/mL] | IC50 (CCL228) [µg/mL] | IC50 (MCF7) [µg/mL] | IC50 (B7474) [µg/mL] | IC50 (T47D) [µg/mL] | IC50 (LX1) [µg/mL] | IC50 (A549) [µg/mL] | IC50 (LOX) [µg/mL] | IC50 (A431 [1]) [µg/mL] | IC50 (NEC) [µg/mL] | also measured
1 | COc1cc2ncc(C#N)c(Oc3cccc(Br)c3)c2cc1OC [Example 49, 4-(3-Bromophenoxy)-6,7-dimethoxy-3-quinolinecarbonitrile] | 70.6 (≈ 183 µM) | 34.8 (≈ 90.2 µM) | 51.8 (≈ 135 µM) | > 100 | > 100 | 88 (≈ 228 µM) | 98.4 (≈ 256 µM) | 42.1 (≈ 109 µM) | 97.4 (≈ 253 µM) | > 100 | > 100 | 99 (≈ 257 µM) | 57.5 (≈ 149 µM) | 87.1 (≈ 226 µM) | 71.2 (≈ 185 µM) | > 100 | > 100 | 55.1 (≈ 143 µM) | 100 (≈ 260 µM) | 85.3 (≈ 221 µM) | IC50 (DU145): 79.8 µg/mL (≈ 207 µM); IC50 (PC3): > 100 µg/mL; IC50 (LNCAP): 52.4 µg/mL (≈ 136 µM); IC50 (HL60): 48.4 µg/mL (≈ 126 µM); IC50 (CCRF-CFM): > 100 µg/mL; IC50 (SKBR3): 74.6 µg/mL (≈ 194 µM); IC50 [2]: > 77.9 µM; IC50 [3]: > 100 µM
2 | C=CC(=O)Nc1cc2c(Nc3cccc(Br)c3)c(C#N)cnc2cc1OC [Example 9, N-[4-[(3-Bromophenyl)amino]-3-cyano-7-methoxy-6-quinolinyl]-2-propenamide] | 0.341 (≈ 0.806 µM) | 0.542 (≈ 1.28 µM) | 0.513 (≈ 1.21 µM) | 0.731 (≈ 1.73 µM) | 1.94 (≈ 4.58 µM) | 2.56 (≈ 6.06 µM) | 0.91 (≈ 2.15 µM) | 0.341 (≈ 0.805 µM) | 0.984 (≈ 2.33 µM) | 0.712 (≈ 1.68 µM) | 3.3 (≈ 7.8 µM) | 0.707 (≈ 1.67 µM) | 3.25 (≈ 7.69 µM) | 0.443 (≈ 1.05 µM) | 0.838 (≈ 1.98 µM) | 0.0672 (≈ 0.159 µM) | 2.92 (≈ 6.89 µM) | 0.438 (≈ 1.04 µM) | 0.433 (≈ 1.02 µM) | 0.952 (≈ 2.25 µM) | IC50 (DU145): 0.388 µg/mL (≈ 0.916 µM); IC50 (PC3): 1.66 µg/mL (≈ 3.92 µM); IC50 (LNCAP): 0.661 µg/mL (≈ 1.56 µM); IC50 (HL60): 0.758 µg/mL (≈ 1.79 µM); IC50 (CCRF-CFM): 0.551 µg/mL (≈ 1.3 µM); IC50 (SKBR3): 0.862 µg/mL (≈ 2.04 µM); IC50 [2]: > 70.9 µM; IC50 [3]: > 100 µM
3 | N#Cc1cnc2ccc(N)cc2c1Nc1cccc(Br)c1 [Example 14, 6-Amino-4-[(3-bromophenyl)amino]-3-quinolinecarbonitrile] | 1.79 (≈ 5.29 µM) | 3.59 (≈ 10.6 µM) | 5.92 (≈ 17.5 µM) | 6.19 (≈ 18.2 µM) | 88.8 (≈ 262 µM) | > 100 | 8.9 (≈ 26.2 µM) | 0.989 (≈ 2.91 µM) | 6.63 (≈ 19.5 µM) | 39.3 (≈ 116 µM) | > 100 | 39.4 (≈ 116 µM) | 80.7 (≈ 238 µM) | 20.6 (≈ 60.6 µM) | 7.39 (≈ 21.8 µM) | 69.6 (≈ 205 µM) | 7.68 (≈ 22.7 µM) | 2.81 (≈ 8.29 µM) | 1.5 (≈ 4.42 µM) | 8.28 (≈ 24.4 µM) | IC50 (A431 [4]): 0.1 µM; IC50 (DU145): 0.91 µg/mL (≈ 2.68 µM); IC50 (PC3): 41.2 µg/mL (≈ 122 µM); IC50 (LNCAP): 8.98 µg/mL (≈ 26.5 µM); IC50 (HL60): 4.04 µg/mL (≈ 11.9 µM); IC50 (CCRF-CFM): 7.6 µg/mL (≈ 22.4 µM); IC50 (SKBR3): 43.6 µg/mL (≈ 129 µM); IC50 [3]: > 100 µM

From patent publication EP0973746B1, “SUBSTITUTED 3-CYANO QUINOLINES” (Wyeth Holdings Corporation, priority 1997, dated 1998)
